Assay [1] addresses T1, Tumor necrosis factor (Homo sapiens, UniProt P01375). Briefly: Binding affinity to human GST-tagged TNF extracellular domain expressed in Escherichia coli BL21(DE3)pLysS cells by fluorescence spectrophotometric analysis.
Assay [2] deals with T1, Tumor necrosis factor. The experiment in a line: Inhibition of human TNF assessed as reduction in TNF-induced cell death of actinomycin D activated mouse L929 cells preincubated for 30 mins followed by cell addition measured after 18 to 24 hrs by crystal violet staining based spectrophotometric analysis.
Assay [3] addresses T1, Tumor necrosis factor. The experiment in a line: Binding affinity to recombinant human TNF assessed as inhibition of TNF-TNFR1 interaction incubated for 1 hr by ELISA.

T1 sequence (P01375 whole entry, the tested form may be a part): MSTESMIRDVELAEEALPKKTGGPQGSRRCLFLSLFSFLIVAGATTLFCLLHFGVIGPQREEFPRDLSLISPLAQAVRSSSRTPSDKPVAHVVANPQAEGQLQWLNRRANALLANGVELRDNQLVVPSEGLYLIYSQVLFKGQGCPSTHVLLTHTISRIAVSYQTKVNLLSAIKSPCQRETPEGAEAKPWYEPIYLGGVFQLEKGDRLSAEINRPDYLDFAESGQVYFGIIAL

The Kd is a measure of binding affinity in units of concentration. Broadly, the IC50 is the concentration at which inhibition is half-maximal. Regarding `O=C(c1coc2ccccc2c1=O)N1CCN(Cc2cn(-c3cccc(C(F)(F)F)c3)c3ccc([N+](=O)[O-])cc23)CC1`, the Kd entry in assay [1] is “Not Active”. In assay [2], the IC50 result was “Not Active”.
Turning to `O=C(c1coc2ccccc2c1=O)N1CCN(C(=O)c2cn(-c3cccc(C(F)(F)F)c3)c3ccc([N+](=O)[O-])cc23)CC1`, the equilibrium dissociation constant (Kd) entry in assay [1] is given as “Not Active”. In addition, the concentration for half-maximal inhibition (IC50) entry in assay [2] is “Not Active”.
Consider `O=C(c1ccccc1)N1CCN(C(=O)c2cn(-c3cccc(C(F)(F)F)c3)c3ccccc23)CC1`, for which the Kd in assay [1] (read-out: Kd) was found to be 15.2 µM. The IC50 result in assay [2] was “Not Active”.
Turning to `Cc1ccc2occ(CN(C)CCN(C)Cc3cn(-c4cccc(C(F)(F)F)c4)c4ccccc34)c(=O)c2c1`, the IC50 in assay [3] stood at 10 µM. For the same compound, the Kd in assay [1] (read-out: Kd) was found to be 18.6 µM.
Consider `CN(CCN(C)C(=O)c1cn(S(=O)(=O)c2cccc(N)c2)c2ccccc12)C(=O)c1coc2ccccc2c1=O`, for which, in assay [3], the IC50 was determined as 20 µM. In assay [1] (read-out: Kd), the Kd worked out at 0.95 µM.
Consider `O=C(c1coc2ccccc2c1=O)N1CCN(C(=O)c2cn(-c3cccc([N+](=O)[O-])c3)c3ccc([N+](=O)[O-])cc23)CC1`, for which, in assay [3], the 50% inhibitory concentration (IC50) came to 20 µM. Besides, the Kd in assay [1] (read-out: Kd) worked out at 0.74 µM.
Regarding `O=C(NCCCNC(=O)c1cn(S(=O)(=O)c2ccccc2)c2ccccc12)c1ccccc1`, the Kd entry in assay [1] is “Not Active”. Besides, the 50% inhibitory concentration (IC50) result in assay [2] is reported as “Not Active”.
For `O=C(NCCCCNC(=O)c1cn(S(=O)(=O)c2ccccc2)c2ccccc12)c1ccc2ccccc2c1`, the equilibrium dissociation constant (Kd) in assay [1] (read-out: Kd) amounted to 18.7 µM. For the same compound, in assay [2], the half-inhibitory concentration (IC50) result was “Not Active”.
As for `Nc1cccc(S(=O)(=O)n2cc(C(=O)N3CCN(C(=O)c4coc5ccccc5c4=O)CC3)c3ccccc32)c1`, the concentration for half-maximal inhibition (IC50) in assay [3] was 40 µM. For the same compound, the Kd in assay [1] (read-out: Kd) amounted to 5.45 µM.
For the compound `O=C(c1ccccc1F)N1CCN(C(=O)c2c[nH]c3ccc([N+](=O)[O-])cc23)CC1`, in assay [1] (read-out: Kd), the Kd was 17.9 µM. Also, the half-inhibitory concentration (IC50) result in assay [2] is reported as “Not Active”.
Turning to `CN(CCN(C)C(=O)c1cn(-c2cccc(N)c2)c2ccccc12)C(=O)c1coc2ccccc2c1=O`, in assay [1] (read-out: Kd), the Kd worked out at 35.2 µM. Further, the 50% inhibitory concentration (IC50) entry in assay [2] is “Not Active”.
For `O=C(NCCCNC(=O)c1cn(S(=O)(=O)c2ccccc2)c2ccccc12)c1coc2ccccc2c1=O`, the concentration for half-maximal inhibition (IC50) in assay [3] worked out at 40 µM. Besides, in assay [1] (read-out: Kd), the Kd was found to be 5.2 µM.
With `CN(CCN(C)C(=O)c1cn(S(=O)(=O)c2ccccc2)c2ccccc12)C(=O)c1ccccc1`, the dissociation constant (Kd) in assay [1] (read-out: Kd) was 17.3 µM. Besides, the half-maximal inhibitory concentration (IC50) entry in assay [2] is “Not Active”.
In the case of `CN(CCN(C)C(=O)c1cn(S(=O)(=O)c2ccccc2)c2ccccc12)C(=O)c1ccccc1F`, the Kd result in assay [1] is listed as “Not Active”. The half-inhibitory concentration (IC50) entry in assay [2] was “Not Active”.
In the case of `O=C(c1coc2ccccc2c1=O)N1CCN(C(=O)c2cn(S(=O)(=O)c3ccccc3)c3ccccc23)CC1`, in assay [3], the half-maximal inhibitory concentration (IC50) is 40 µM. In assay [1] (read-out: Kd), the dissociation constant (Kd) worked out at 12.8 µM.
Consider `CN(CCN(C)C(=O)c1cn(-c2cccc(C(F)(F)F)c2)c2ccc([N+](=O)[O-])cc12)C(=O)c1ccccc1F`, for which the Kd in assay [1] (read-out: Kd) was found to be 10.3 µM. In addition, the half-inhibitory concentration (IC50) entry in assay [2] is “Not Active”.
Turning to `O=C(c1ccc2ccccc2c1)N1CCN(C(=O)c2cn(-c3cccc(C(F)(F)F)c3)c3ccccc23)CC1`, the dissociation constant Kd result in assay [1] was “Not Active”. Also, the IC50 result in assay [2] was “Not Active”.
For `CN(CCN(C)C(=O)n1ccnc1)C(=O)c1cn(S(=O)(=O)c2ccccc2)c2ccccc12`, the dissociation constant Kd result in assay [1] is on record as “Not Active”. In assay [2], the IC50 result was “Not Active”.
For `O=C(c1ccc2ccccc2c1)N1CCN(C(=O)c2cn(S(=O)(=O)c3ccccc3)c3ccccc23)CC1`, the dissociation constant Kd entry in assay [1] was “Not Active”. Besides, the concentration for half-maximal inhibition (IC50) entry in assay [2] is “Not Active”.
With `Nc1cccc(-n2cc(C(=O)N3CCN(C(=O)c4coc5ccccc5c4=O)CC3)c3ccccc32)c1`, the IC50 in assay [3] was 20 µM. The dissociation constant (Kd) in assay [1] (read-out: Kd) stood at 14.1 µM.
For `Nc1cccc(-n2cc(C(=O)N3CCN(C(=O)C4COc5ccccc5C4=O)CC3)c3cc(N)ccc32)c1` (configuration not stated), in assay [1], the dissociation constant (Kd) entry was “Not Active”. Also, in assay [2], the IC50 entry is “Not Active”.
In the case of `O=C(c1coc2ccccc2c1=O)N1CCN(C(=O)c2cn(-c3cccc([N+](=O)[O-])c3)c3ccccc23)CC1`, in assay [1] (read-out: Kd), the Kd amounted to 25.4 µM. In addition, the IC50 result in assay [2] was “Not Active”.
`O=C(c1ccccc1)N1CCN(Cc2cn(-c3cccc(C(F)(F)F)c3)c3ccccc23)CC1`: in assay [3], the half-maximal inhibitory concentration (IC50) turned out to be 20 µM. The Kd in assay [1] (read-out: Kd) was found to be 2.14 µM.
On to `Cc1ccc2occ(CN3CCN(Cc4cn(-c5cccc(C(F)(F)F)c5)c5ccccc45)CC3)c(=O)c2c1`, for which the concentration for half-maximal inhibition (IC50) in assay [3] stood at 15 µM. For the same compound, the Kd in assay [1] (read-out: Kd) came out at 4.78 µM.
As for `CN(CCN(C)C(=O)c1cn(S(=O)(=O)c2cccc([N+](=O)[O-])c2)c2ccccc12)C(=O)c1coc2ccccc2c1=O`, the IC50 in assay [3] was determined as 40 µM. In assay [1] (read-out: Kd), the dissociation constant (Kd) stood at 3.16 µM.
For the compound `Nc1cccc(-n2cc(C(=O)N3CCN(C(=O)c4coc5ccccc5c4=O)CC3)c3cc(N)ccc32)c1`, the half-inhibitory concentration (IC50) in assay [3] stood at 40 µM. For the same compound, the Kd in assay [1] (read-out: Kd) is 15.6 µM.
In the case of `CN(CCN(C)C(=O)c1cn(S(=O)(=O)c2ccccc2)c2ccccc12)C(=O)c1ccc2ccccc2c1`, the Kd in assay [1] (read-out: Kd) stood at 25 µM. Also, the IC50 result in assay [2] is recorded as “Not Active”.
Take `O=C(c1ccc2ccccc2c1)N1CCN(Cc2cn(-c3cccc(C(F)(F)F)c3)c3ccc([N+](=O)[O-])cc23)CC1`: in assay [1], the equilibrium dissociation constant (Kd) result is on record as “Not Active”. The concentration for half-maximal inhibition (IC50) entry in assay [2] was “Not Active”.
In the case of `O=C(c1cn(-c2cccc(C(F)(F)F)c2)c2ccccc12)N1CCN(C(=O)n2ccnc2)CC1`, the Kd in assay [1] (read-out: Kd) is > 35 µM. In addition, the IC50 entry in assay [2] is “Not Active”.
Consider `CN(CCN(C)C(=O)c1cn(S(=O)(=O)c2ccccc2)c2ccccc12)C(=O)c1coc2ccccc2c1=O`, for which the half-inhibitory concentration (IC50) in assay [3] was > 60 µM. For the same compound, the Kd in assay [1] (read-out: Kd) was found to be 7 µM.
For `Cc1cc2occ(CN3CCN(Cc4cn(-c5cccc(C(F)(F)F)c5)c5ccccc45)CC3)c(=O)c2cc1C` the same measures were 15 µM and 10.1 µM.
Consider `Cc1cc2occ(C(=O)N3CCN(C(=O)c4cn(-c5cccc(C(F)(F)F)c5)c5ccccc45)CC3)c(=O)c2cc1C`, for which the Kd in assay [1] (read-out: Kd) is 5.12 µM. The IC50 result in assay [2] is “Not Active”.
For `CN(CCN(C)C(=O)c1cn(S(=O)(=O)c2ccccc2)c2ccccc12)C(=O)c1cccs1` the same measures were 8.22 µM and “Not Active”.
`O=C(c1coc2ccccc2c1=O)N1CCN(Cc2cn(-c3cccc(C(F)(F)F)c3)c3ccccc23)CC1`: the IC50 in assay [3] is 20 µM. Also, the equilibrium dissociation constant (Kd) in assay [1] (read-out: Kd) was 1.61 µM.
As to `O=C(NCCNC(=O)c1cn(S(=O)(=O)c2ccccc2)c2ccccc12)c1ccc2ccccc2c1`, the equilibrium dissociation constant (Kd) in assay [1] (read-out: Kd) was > 35 µM. Besides, the 50% inhibitory concentration (IC50) entry in assay [2] is “Not Active”.
On to `O=C(c1ccc2ccccc2c1)N1CCN(Cc2cn(-c3cccc(C(F)(F)F)c3)c3ccccc23)CC1`, for which the IC50 in assay [3] was 40 µM. Besides, the Kd in assay [1] (read-out: Kd) came to 7.82 µM.
Consider `O=C(c1coc2ccccc2c1=O)N1CCN(C(=O)c2cn(S(=O)(=O)c3cccc([N+](=O)[O-])c3)c3ccccc23)CC1`, for which the 50% inhibitory concentration (IC50) in assay [3] was found to be 40 µM. In addition, in assay [1] (read-out: Kd), the equilibrium dissociation constant (Kd) worked out at 16.8 µM.
Turning to `O=C(c1cccs1)N1CCN(C(=O)c2c[nH]c3ccc([N+](=O)[O-])cc23)CC1`, the dissociation constant (Kd) in assay [1] (read-out: Kd) was 10.7 µM. Further, the IC50 result in assay [2] was “Not Active”.
As for `Cc1cc2occ(C(=O)N(C)CCN(C)C(=O)c3cn(-c4cccc(C(F)(F)F)c4)c4ccccc34)c(=O)c2cc1C`, the IC50 in assay [3] is > 60 µM. For the same compound, the dissociation constant Kd in assay [1] (read-out: Kd) worked out at 2.51 µM.
`CN(CCN(C)C(=O)c1cn(-c2cccc(C(F)(F)F)c2)c2ccc([N+](=O)[O-])cc12)C(=O)c1coc2ccccc2c1=O`: the equilibrium dissociation constant (Kd) in assay [1] (read-out: Kd) is 13.3 µM. Besides, in assay [2], the half-inhibitory concentration (IC50) entry was “Not Active”.
For the compound `CN(CCN(C)C(=O)c1cn(-c2cccc([N+](=O)[O-])c2)c2ccccc12)C(=O)c1coc2ccccc2c1=O`, in assay [1] (read-out: Kd), the Kd was determined as 12.2 µM. Further, in assay [2], the IC50 entry is given as “Not Active”.

These data come from ChEMBL document CHEMBL3739283, “Synthesis and biological evaluation of potential small moleculeinhibitors of tumor necrosis factor” (Medchemcomm, 2015).
